Measurements taken from US7973033B2, “Multi-cyclic cinnamide derivatives” (Eisai R&D Management Co., Ltd., priority 2006, dated 2011).

System: Aβ 42 production
Test: Quantification of Aβ Peptide in Culture of Neurons from Rat Fetus Brain
Format: cell-based
Conditions: Neuron, 72 h; rat primary neuronal culture (cerebral cortex, embryonic day 18 Wistar rats); medium collected three days after addition of the compound; Aβ ELISA; read-out: Effect of reducing Aβ 42 production IC50
Procedure: Quantification of Aβ Peptide in Culture of Neurons from Rat Fetus Brain
(1) Rat Primary Neuronal Culture
Primary neuronal cultures were prepared from the cerebral cortex of embryonic day 18 Wistar rats (Charles River Japan, Yokohama, Japan). Specifically, the embryos were aseptically removed from pregnant rats under ether anesthesia. The brain was isolated from the embryo and immersed in an ice-cold L-15 medium (Invitrogen Corp. Cat #11415-064, Carlsbad, Calif., USA, or SIGMA L1518, for example). The cerebral cortex was collected from the isolated brain under a stereoscopic microscope. The cerebral cortex fragments collected were enzymatically treated in an enzyme solution containing 0.25% trypsin (Invitrogen Corp. Cat #15050-065, Carlsbad, Calif., USA) and 0.01% DNase (Sigma D5025, St. Louis, Mo., USA) at 37° C. for 30 minutes to disperse the cells. Here, the enzymatic reaction was stopped by adding inactivated horse serum to the solution. The enzymatically treated solution was centrifuged at 1,500 rpm for five minutes to remove the supernatant. 5 to 10 ml of a medium was added to the resulting cell mass. Neurobasal medium (Invitrogen Corp. Cat #21103-049, Carlsbad, Calif., USA) supplemented with 2% B27 supplement (Invitrogen Corp. Cat #17504-044, Carlsbad, Calif., USA), 25 μM 2-mercaptoethanol (2-ME, WAKO Cat #139-06861, Osaka, Japan), 0.5 mM L-glutamine (Invitrogen Corp. Cat #25030-081, Carlsbad, Calif., USA), and Antibiotics-Antimycotics (Invitrogen Corp. Cat #15240-062, Carlsbad, Calif., USA) was used as the medium (Neurobasal/B27/2-ME). However, the above Neurobasal medium not supplemented with 2-ME (Neurobasal/B27) was used for the assay. The cells were redispersed by mild pipetting of the cell mass to which the medium was added. The cell dispersion was filtered through a 40-μm nylon mesh (Cell Strainer, Cat #35-2340, Becton Dickinson Labware, Franklin Lakes, N.J., USA) to remove the remaining cell mass, and thus a neuronal cell suspension was obtained. The neuronal cell suspension was diluted with the medium and then plated in a volume of 100 μl/well at an initial cell density of 5×10^5 cells/cm^2 in a 96-well polystyrene culture plate pre-coated with poly-L or D-lysine (Falcon Cat #35-3075, Becton Dickinson Labware, Franklin Lakes, N.J., USA coated with poly-L-lysine using the method shown below, or BIOCOAT™ cell environments Poly-D-lysine cell ware 96-well plate, Cat #35-6461, Becton Dickinson Labware, Franklin Lakes, N.J., USA). Poly-L-lysine coating was carried out as follows. 100 μg/ml of a poly-L-lysine (SIGMA P2636, St. Louis, Mo., USA) solution was aseptically prepared with a 0.15 M borate buffer (pH 8.5). 100 μl/well of the solution was added to the 96-well polystyrene culture plate and incubated at room temperature for one or more hours or at 4° C. overnight or longer. The coated 96-well polystyrene culture plate was washed with sterile water four or more times, and then dried or rinsed with, for example, sterile PBS or medium, and used for cell plating. The plated cells were cultured in the culture plate at 37° C. in 5% CO2-95% air for one day. Then, the total amount of the medium was replaced with a fresh Neurobasal™/B27/2-ME medium, and then the cells were cultured for further three days.
The drug was added to the culture plate on Day 4 of culture as follows. The total amount of the medium was removed from the wells, and 180 μl/well of Neurobasal medium not containing 2-ME and containing 2% B-27 (Neurobasal/B27) was added thereto. A solution of the test compound in dimethyl sulfoxide (hereinafter abbreviated as DMSO) was diluted with Neurobasal/B27 at 10-fold of the final concentration. 20 μl/well of the dilution was added to and sufficiently mixed with the medium. The final DMSO concentration was 1% or less. Only DMSO was added to the control group.
The cells were cultured for three days after addition of the compound, and the total amount of the medium was collected. […]

First: COc1cc(/C=C/c2nnc(CCc3ccc(F)cc3)[nH]2)ccc1-n1cnc(C)c1 [Example 32, 3-[2-(4-fluorophenyl)ethyl]-5-{(E)-2-[3-methoxy-4-(4-methyl-1H-imidazol-1-yl)phenyl]vinyl}-4H-[1,2,4]triazole]
Second: COc1cc(/C=C/c2nnc(C(C)c3ccc(F)cc3)[nH]2)ccc1-n1cnc(C)c1 (racemic) [Example 31, 3-[1-(4-fluorophenyl)ethyl]-5-{(E)-2-[3-methoxy-4-(4-methyl-1H-imidazol-1-yl)phenyl]vinyl}-4H-[1,2,4]triazole]
The IC50 of the first is 1.9-fold higher: 62 nM for the first, 33 nM for the second.

`COc1cc(/C=C/c2nc3n(n2)CCCC3(O)c2ccc(Cl)cc2)ccc1-n1cnc(C)c1` (single isomer, unassigned) [Example 153, (−)-8-(4-chlorophenyl)-2-{(E)-2-[3-methoxy-4-(4-methyl-1H-imidazol-1-yl)phenyl]vinyl}-5,6,7,8-tetrahydro[1,2,4]triazolo[1,5-a]pyridin-8-ol] and `COc1cc(/C=C/c2nc3n(n2)CCC[C@@H]3c2ccc(Cl)cc2)ccc1-n1cnc(C)c1` (single isomer, unassigned) [Example 149, (−)-8-(4-chlorophenyl)-2-{(E)-2-[3-methoxy-4-(4-methyl-1H-imidazol-1-yl)phenyl]vinyl}-5,6,7,8-tetrahydro[1,2,4]triazolo[1,5-a]pyridine] are within 1.5-fold of each other in IC50: 31 nM for the first, 21 nM for the second.

Going from `COc1cc(/C=C/c2nc3n(n2)CCOC3c2ccc(OC(F)(F)F)cc2)ccc1-n1cnc(C)c1` (single isomer, unassigned) [Example 135, (−)-2-{(E)-2-[3-methoxy-4-(4-methyl-1H-imidazol-1-yl)phenyl]vinyl}-8-(4-trifluoromethoxyphenyl)-5,6-dihydro-8H-[1,2,4]triazolo[5,1-c][1,4]oxazine] to `COc1cc(/C=C/c2nc3n(n2)CCC[C@H]3c2ccccc2)ccc1-n1cnc(C)c1` (single isomer, unassigned) [Example 172, (−)-2-{(E)-2-[3-methoxy-4-(4-methyl-1H-imidazol-1-yl)phenyl]vinyl}-8-phenyl-5,6,7,8-tetrahydro[1,2,4]triazolo[1,5-a]pyridine], the IC50 falls from 43 nM to 11 nM (3.9-fold).

First: COc1cc(/C=C/c2nc(-c3ccccc3)cn2C)ccc1-n1cnc(C)c1 [Example 5, 2-{(E)-2-[3-methoxy-4-(4-methyl-1H-imidazol-1-yl)phenyl]vinyl}-1-methyl-4-phenyl-1H-imidazole]
Second: COc1cc(/C=C/c2nnc(C(C)(C)c3ccccc3)[nH]2)ccc1-n1cnc(C)c1 [Example 49, 3-{(E)-2-[3-methoxy-4-(4-methyl-1H-imidazol-1-yl)phenyl]vinyl}-5-(1-methyl-1-phenylethyl)-4H-[1,2,4]triazole]
The IC50 of the first is 3.5-fold lower: 18 nM for the first, 63 nM for the second.

Going from `COc1cc(/C=C/c2nc3n(n2)CCCC3c2cc(F)c(F)c(F)c2)ccc1-n1cnc(C)c1` (single isomer, unassigned) [Example 54, (−)-2-{(E)-2-[3-methoxy-4-(4-methyl-1H-imidazol-1-yl)phenyl]vinyl}-8-(3,4,5-trifluorophenyl)-5,6,7,8-tetrahydro[1,2,4]triazolo[1,5-a]pyridine] to `COc1cc(/C=C/c2nc3n(n2)CCC3c2cc(F)c(F)c(F)c2)ccc1-n1cnc(C)c1` (single isomer, unassigned) [Example 113, (−)-2-{(E)-2-[3-methoxy-4-(4-methyl-1H-imidazol-1-yl)phenyl]vinyl}-7-(3,4,5-trifluorophenyl)-6,7-dihydro-5H-pyrrolo[1,2-b][1,2,4]triazole], the IC50 rises from 14 nM to 32 nM (2.3-fold). The first is the more potent here.

Compared with `COc1cc(/C=C/c2nc3n(n2)CCCC3c2cc(F)c(F)c(F)c2)cnc1-n1cnc(C)c1` (single isomer, unassigned) [Example 60, (−)-2-{(E)-2-[5-methoxy-6-(4-methyl-1H-imidazol-1-yl)pyridin-3-yl]vinyl}-8-(3,4,5-trifluorophenyl)-5,6,7,8-tetrahydro[1,2,4]triazolo[1,5-a]pyridine], `Cc1cn(-c2ccc(/C=C/c3nc4n(n3)CCCC4c3cc(F)c(F)c(F)c3)cc2F)cn1` (single isomer, unassigned) [Example 62, (−)-2-{(E)-2-[3-fluoro-4-(4-methyl-1H-imidazol-1-yl)phenyl]vinyl}-8-(3,4,5-trifluorophenyl)-5,6,7,8-tetrahydro[1,2,4]triazolo[1,5-a]pyridine] is 1.7-fold lower in IC50: 40 nM for the first, 23 nM for the second. The second is the more potent here.

Going from `COc1cc(/C=C(\F)c2nc3n(n2)CCC[C@@H]3c2cc(F)c(F)c(F)c2)ccc1-n1cnc(C)c1` (single isomer, unassigned) [Example 58, (−)-2-{(Z)-1-fluoro-2-[3-methoxy-4-(4-methyl-1H-imidazol-1-yl)phenyl]vinyl}-8-(3,4,5-trifluorophenyl)-5,6,7,8-tetrahydro[1,2,4]triazolo[1,5-a]pyridine] to `COc1cc(/C=C/c2nc3n(n2)CCCC3c2cccc3ccccc23)ccc1-n1cnc(C)c1` (single isomer, unassigned) [Example 130, (+)-2-{(E)-2-[3-methoxy-4-(4-methyl-1H-imidazol-1-yl)phenyl]vinyl}-8-naphthalen-1-yl-5,6,7,8-tetrahydro[1,2,4]triazolo[1,5-a]pyridine], the IC50 falls from 39 nM to 13 nM (3-fold).

`COc1cc(/C=C/c2nc(-c3ccc(F)cc3)c(CO)[nH]2)ccc1-n1cnc(C)c1` [Example 7, 5-(4-fluorophenyl)-2-{(E)-2-[3-methoxy-4-(4-methyl-1H-imidazol-1-yl)phenyl]vinyl}-(1H-imidazol-4-yl)methanol] and `COc1cc(/C=C/c2nc(-c3ccc(F)cc3)c(C(=O)NCCCl)[nH]2)ccc1-n1cnc(C)c1` [Example 9, 5-(4-fluorophenyl)-2-{(E)-2-[3-methoxy-4-(4-methyl-1H-imidazol-1-yl)phenyl]vinyl}-1H-imidazole-4-carboxylic acid (2-chloroethyl)amide] are within 1.5-fold of each other in IC50: 67 nM for the first, 83 nM for the second.

`COc1cc(/C=C2\CCCn3c2nc(CO)c3-c2ccc(F)cc2)ccc1-n1cnc(C)c1` [Example 23, {3-(4-fluorophenyl)-8-{1-[3-methoxy-4-(4-methyl-1H-imidazol-1-yl)phenyl]-(E)-methylidene}-5,6,7,8-tetrahydroimidazo[1,2-a]pyridin-2-yl}methanol] and `COC(=O)c1nc2n(c1-c1ccc(F)cc1)CCC/C2=C\c1ccc(-n2cnc(C)c2)c(OC)c1` [Example 21, methyl 3-(4-fluorophenyl)-8-{1-[3-methoxy-4-(4-methyl-1H-imidazol-1-yl)phenyl]-(E)-methylidene}-5,6,7,8-tetrahydroimidazo[1,2-a]pyridine-2-carboxylate] are within 1.5-fold of each other in IC50: 60 nM for the first, 41 nM for the second.

`COc1cc(/C=C2\CCCn3c(-c4ccc(F)cc4)cnc32)ccc1-n1cnc(C)c1` [Example 18, 3-(4-fluorophenyl)-8-{1-[3-methoxy-4-(4-methyl-1H-imidazol-1-yl)phenyl]-(E)-methylidene}-5,6,7,8-tetrahydroimidazo[1,2-a]pyridine] and `COc1cc(/C=C/c2nc(-c3ccc(F)cc3)c3n2CCOC3)ccc1-n1cnc(C)c1` [Example 13, 1-(4-fluorophenyl)-3-{(E)-2-[3-methoxy-4-(4-methyl-1H-imidazol-1-yl)phenyl]vinyl}-5,6-dihydro-8H-imidazo[5,1-c][1,4]oxazine] are the same in IC50: 170 nM for the first, 170 nM for the second.

`COc1cc(/C=C/c2nc3n(n2)CCC[C@@]3(O)c2cccc3ccccc23)ccc1-n1cnc(C)c1` (single isomer, unassigned) [Example 136, (−)-2-{(E)-2-[3-methoxy-4-(4-methyl-1H-imidazol-1-yl)phenyl]vinyl}-8-naphthalen-1-yl-5,6,7,8-tetrahydro[1,2,4]triazolo[1,5-a]pyridin-8-ol] was tested, and the IC50 was 24 nM.
